Here are results for seven compounds from patent publication US20240246972A1, “AZAINDOLE ROCK INHIBITORS” (priority 2022, published 2024).

Each structure is given as a SMILES string. ≈ marks a conversion by molar mass, not a printed value. Where only a bound is given, the exact number is not on record here.

Series [1] concerns P-gp (MDR1). The experiment in a line: MDCK-MDR1 efflux assay, Experimental Procedure 1. The series is classed as in vitro ADME. The conditions noted are these: dog, Table 3A, pH 7.4. As to the method:
MDCK-MDR1 cells grown in tissue culture flasks were trypsinized, suspended in medium, and the suspensions were applied to wells of a Millipore 96 well plate. The cells were allowed to grow and differentiate for five days, feeding at 2-day intervals. For Apical to Basolateral (A→B) permeability, the test article was added to the apical (A) side and amount of permeation was determined on the basolateral (B) side; for Basolateral to Apical (B→A) permeability, the test article was added to the B side and the amount of permeation was determined on the A side. […] Following centrifugation, the supernatant for donor and receiver side samples were analyzed by LC-MS/MS. Data was expressed as permeability (Papp):Papp=(dQ/dt)/(C0A) where dQ/dt is rate of permeation, C0 is initial concentration of test article, and A is the area of monolayer. In bidirectional permeability studies, the Efflux Ratio (Re) was calculated: [formula]

The target in series [2] is PRKX (Homo sapiens (Human), UniProt P51817). The experiment in a line: PRKX inhibition assay (HotSpot kit, 33P-ATP). The series is classed as biochemical. The conditions noted are these: Table 2B; 10 μM ATP; Compound 1 is geometric mean of multiple experiments. On the procedure:
(§1) Compounds as a powder were dissolved in dimethyl sulfoxide to make a 10 mM stock. […] The HotSpot kit employing ^33P-ATP was used with reactions conducted at 10 μM ATP for each tested enzyme. The percent activity relative to DMSO controls for each concentration was then fitted to a curve using GraphPad Prism to determine the IC50. […] Each experiment was run in the same lab with this procedure.

Series [3] deals with ROCK2 (Homo sapiens (Human), UniProt O75116). The experiment in a line: ROCK2 inhibition assay (HotSpot kit, 33P-ATP). The series is classed as biochemical. The conditions noted are these: 10 μM ATP.
Sequence of ROCK2 (O75116 whole entry): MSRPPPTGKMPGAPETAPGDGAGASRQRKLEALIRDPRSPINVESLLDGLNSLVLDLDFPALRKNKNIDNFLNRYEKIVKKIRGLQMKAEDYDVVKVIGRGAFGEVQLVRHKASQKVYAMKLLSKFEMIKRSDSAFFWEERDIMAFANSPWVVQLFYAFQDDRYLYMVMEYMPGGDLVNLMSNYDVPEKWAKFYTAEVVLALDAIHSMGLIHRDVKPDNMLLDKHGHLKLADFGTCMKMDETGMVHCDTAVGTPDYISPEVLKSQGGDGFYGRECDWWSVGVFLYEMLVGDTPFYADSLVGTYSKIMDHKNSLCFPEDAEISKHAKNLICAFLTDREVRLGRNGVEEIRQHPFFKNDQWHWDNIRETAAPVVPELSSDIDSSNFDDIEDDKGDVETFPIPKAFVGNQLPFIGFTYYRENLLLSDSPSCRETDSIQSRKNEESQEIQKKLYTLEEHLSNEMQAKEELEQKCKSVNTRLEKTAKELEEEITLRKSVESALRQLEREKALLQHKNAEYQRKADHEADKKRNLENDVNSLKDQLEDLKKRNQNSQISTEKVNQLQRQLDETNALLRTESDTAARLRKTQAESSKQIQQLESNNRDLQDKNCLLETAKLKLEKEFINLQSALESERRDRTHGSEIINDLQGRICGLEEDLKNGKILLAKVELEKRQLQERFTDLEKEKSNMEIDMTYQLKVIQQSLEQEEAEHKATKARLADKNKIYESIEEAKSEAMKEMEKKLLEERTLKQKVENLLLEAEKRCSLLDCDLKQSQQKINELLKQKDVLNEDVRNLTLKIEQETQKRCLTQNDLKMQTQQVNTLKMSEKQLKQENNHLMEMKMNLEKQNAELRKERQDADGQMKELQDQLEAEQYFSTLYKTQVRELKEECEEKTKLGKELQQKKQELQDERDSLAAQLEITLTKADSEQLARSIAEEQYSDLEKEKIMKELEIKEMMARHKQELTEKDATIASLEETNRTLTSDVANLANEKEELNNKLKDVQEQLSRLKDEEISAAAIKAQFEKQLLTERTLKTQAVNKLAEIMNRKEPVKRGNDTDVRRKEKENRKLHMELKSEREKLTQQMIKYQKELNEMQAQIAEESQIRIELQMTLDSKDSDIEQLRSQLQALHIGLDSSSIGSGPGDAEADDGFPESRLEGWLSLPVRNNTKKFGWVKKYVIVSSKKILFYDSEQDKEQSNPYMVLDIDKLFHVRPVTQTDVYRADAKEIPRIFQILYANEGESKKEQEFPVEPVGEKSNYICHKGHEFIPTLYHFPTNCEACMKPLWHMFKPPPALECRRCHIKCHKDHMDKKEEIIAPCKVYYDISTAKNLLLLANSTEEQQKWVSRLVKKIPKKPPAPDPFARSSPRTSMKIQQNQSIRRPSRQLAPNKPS
The target in series [4] is ROCK1 (Homo sapiens (Human), UniProt Q13464). Briefly: ROCK1 inhibition assay (HotSpot kit, 33P-ATP). The series is classed as biochemical. To be noted: 10 μM ATP.
Sequence of ROCK1 (Q13464 whole entry): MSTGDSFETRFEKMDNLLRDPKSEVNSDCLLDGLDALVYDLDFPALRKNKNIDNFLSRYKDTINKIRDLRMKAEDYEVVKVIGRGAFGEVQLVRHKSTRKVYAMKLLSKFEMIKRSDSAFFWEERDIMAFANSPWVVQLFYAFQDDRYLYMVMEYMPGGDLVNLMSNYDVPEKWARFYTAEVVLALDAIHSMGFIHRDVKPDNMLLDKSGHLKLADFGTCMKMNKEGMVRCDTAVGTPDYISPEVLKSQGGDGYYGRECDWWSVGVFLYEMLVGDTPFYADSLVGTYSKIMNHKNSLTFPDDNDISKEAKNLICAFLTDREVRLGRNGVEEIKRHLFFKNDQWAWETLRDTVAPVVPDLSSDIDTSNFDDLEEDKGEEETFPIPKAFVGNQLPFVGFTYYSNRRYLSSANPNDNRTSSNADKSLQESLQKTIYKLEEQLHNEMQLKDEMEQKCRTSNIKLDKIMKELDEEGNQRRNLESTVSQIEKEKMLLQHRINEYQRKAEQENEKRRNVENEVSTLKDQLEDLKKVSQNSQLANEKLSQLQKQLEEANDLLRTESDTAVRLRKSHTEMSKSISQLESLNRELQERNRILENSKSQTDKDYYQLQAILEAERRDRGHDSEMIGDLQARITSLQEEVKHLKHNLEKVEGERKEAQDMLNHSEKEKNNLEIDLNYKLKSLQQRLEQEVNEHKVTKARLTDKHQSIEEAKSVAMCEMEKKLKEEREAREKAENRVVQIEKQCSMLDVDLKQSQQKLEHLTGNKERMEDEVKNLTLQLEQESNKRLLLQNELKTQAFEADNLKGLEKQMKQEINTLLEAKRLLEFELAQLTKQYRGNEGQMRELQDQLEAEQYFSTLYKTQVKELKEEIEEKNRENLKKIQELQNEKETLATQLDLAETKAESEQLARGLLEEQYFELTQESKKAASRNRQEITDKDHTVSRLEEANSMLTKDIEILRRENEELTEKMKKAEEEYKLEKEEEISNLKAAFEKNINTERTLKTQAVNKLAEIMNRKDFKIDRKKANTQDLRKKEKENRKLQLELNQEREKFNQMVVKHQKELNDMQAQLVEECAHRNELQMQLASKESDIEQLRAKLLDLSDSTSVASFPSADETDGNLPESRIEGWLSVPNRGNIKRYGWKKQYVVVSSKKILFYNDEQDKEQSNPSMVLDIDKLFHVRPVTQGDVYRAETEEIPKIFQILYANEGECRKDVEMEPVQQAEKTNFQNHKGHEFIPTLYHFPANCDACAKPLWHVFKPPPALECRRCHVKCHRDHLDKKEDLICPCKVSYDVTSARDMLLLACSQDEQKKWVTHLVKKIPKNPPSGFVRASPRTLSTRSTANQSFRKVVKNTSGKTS
Series [5] is described as follows: Kinetic solubility in PBS pH 7.4. The series is classed as physicochemical. To be noted: aqueous buffer, kinetic from dmso stock, PBS pH 7.4, 25° C. On the procedure:
The assay was performed in duplicate.

Series [6] addresses PKA (Homo sapiens (Human), UniProt P17612). The experiment in a line: PKA inhibition assay (HotSpot kit, 33P-ATP). The series is classed as biochemical. To be noted: Table 2B; 10 μM ATP; Compound 1 is geometric mean of multiple experiments. As to the method:
as §1

Series [7] relates to P-gp (MDR1). The experiment in a line: MDCK-MDR1 efflux assay, Experimental Procedure 2. The series is classed as in vitro ADME. The conditions noted are these: dog, Table 3B, pH 7.4.
The conditions of series [8]: mouse, in vivo, po, 20 mg/kg.
Series [9] in a line: 24 hour mouse pharmacokinetics. It counts as in vivo, B6SJLF1/J mice. The conditions noted are these: for AUC(0-inf) / AUC(0-t) / Cmax / half-life / Tmax: B6SJLF1/J, plasma. As to the method:
Groups 2, 3, 4, 6, and 8: Test article was dissolved in a minimal amount of DMSO (Groups 2, 4, 6, 8: 40-50 μL, Group 3: 100 μL), 0.5% methylcellulose was added to final volume, then solution was sonicated for 2 minutes.
Group 7: Test article was dissolved in 100 μL DMSO, saline was added to final volume, then solution was sonicated for 2 minutes.
Groups 1, 5: The test article was administered as a single dose via slow bolus intravenous administration into a lateral tail vein, with a 27G needle.
Groups 2, 4, 6, 7, 8: The test article was administered as a single dose directly to the stomach by oral gavage.
Group 3: The test article was administered as a single dose in two parts with an approximate 1-2-minute rest between due to volume administered.
Approximately 150 μL of blood was collected by tail nick for the first time point and then the maximal volume by cardiac stick for the second, terminal time point in each mouse. The plasma was spun and separated within 30 minutes of collection and stored frozen at −20° C. until shipment.
Prior to the terminal blood collection, CSF was collected. […] The resulting data is shown in Tables 13, 14, 15, 16 and 17 below.

Series [10] is described as follows: 24 hour rat pharmacokinetics. To be noted: male. The series is classed as in vivo, Sprague-dawley rats.
[11] abbreviates: Table 2B, Compound 1 is geometric mean of multiple experiments.
[12] abbreviates: Sprague-Dawley, in vivo, IV 3 mg/kg.
The mark [13] stands for this setting: Sprague-Dawley, in vivo, PO 10 mg/kg.

Sequence of PRKX (P51817 whole entry): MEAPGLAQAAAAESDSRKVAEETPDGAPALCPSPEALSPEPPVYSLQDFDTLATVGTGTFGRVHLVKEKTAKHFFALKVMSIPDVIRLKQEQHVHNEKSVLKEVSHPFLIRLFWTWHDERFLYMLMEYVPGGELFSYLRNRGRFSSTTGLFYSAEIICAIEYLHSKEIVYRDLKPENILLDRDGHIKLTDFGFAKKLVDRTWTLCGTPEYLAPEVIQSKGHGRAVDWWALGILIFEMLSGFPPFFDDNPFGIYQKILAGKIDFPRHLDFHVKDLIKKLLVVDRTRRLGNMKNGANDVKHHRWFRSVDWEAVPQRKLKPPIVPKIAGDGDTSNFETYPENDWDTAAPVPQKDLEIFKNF

As for `Cc1[nH]ncc1-c1ccc2cc(C(=O)NCc3c(Cl)cccc3C3(O)CC3)[nH]c2n1` [Compound 6, N-(2-chloro-6-(1-hydroxycyclopropyl)benzyl)-6-(5-methyl-1H-pyrazol-4-yl)-1H-pyrrolo[2,3-b]pyridine-2-carboxamide], in series [1], the efflux ratio at 2 h came out at 133.
Regarding `COc1cccc(CNC(=O)c2cc3ccc(-c4cn[nH]c4)nc3[nH]2)c1` [Comparator 6, N-(3-methoxybenzyl)-6-(1H-pyrazol-4-yl)-1H-pyrrolo[2,3-b]pyridine-2-carboxamide, reference compound], the figures for the concentration for half-maximal inhibition (IC50) in [2], in [3] (setting [11]) and in [4] (setting [11]) were 165 nM, 0.96 nM and 10.2 nM, respectively.
In turn, `CC(=O)[C@H]1CC[C@H]2[C@@H]3CCC4=CC(=O)CC[C@]4(C)[C@H]3CC[C@]12C` [Progesterone, reference compound] displayed a solubility (kinetic) at 2 h in [5] of 13.3 µM (≈ 4.19 µg/mL).
Turning to `Cc1[nH]ncc1-c1ccc2cc(C(=O)NCc3c(Cl)cccc3OC3COC3)[nH]c2n1` [Comparator 3, N-(2-chloro-6-(oxetan-3-yloxy)benzyl)-6-(5-methyl-1H-pyrazol-4-yl)-1H-pyrrolo[2,3-b]pyridine-2-carboxamide, reference compound], the half-maximal inhibitory concentration (IC50) in series [2] is 376 nM; in [3] (Table 2A), 587 nM; in series [4] (Table 2A) it was more than 1000 nM; in series [6] it was 1400 nM. The efflux ratio at 2 h in series [1] was determined as 256.
Consider `C[C@H]1O[C@@H](O[C@H]2[C@@H](O)C[C@H](O[C@H]3[C@@H](O)C[C@H](O[C@H]4CC[C@@]5(C)[C@H](CC[C@@H]6[C@@H]5C[C@@H](O)[C@]5(C)[C@@H](C7=CC(=O)OC7)CC[C@]65O)C4)O[C@@H]3C)O[C@@H]2C)C[C@H](O)[C@@H]1O` [Digoxin, reference compound], for which the efflux ratio at 2 h in [1] turned out to be 28.4.
As for `O=C(NCc1ccccc1F)c1cc2ccc(-c3cn[nH]c3C(F)(F)F)nc2[nH]1` [Compound 11, N-[(2-Fluorophenyl)methyl]-6-[3-(trifluoromethyl)-2H-pyrazol-4-yl]-1H-pyrrolo[2,3-b]pyridine-2-carboxamide], the IC50 in series [3] (setting [11]) is 1370 nM; in series [4] (setting [11]), more than 1000 nM.
On to `Cn1c(C(=O)NCc2ccccc2F)cc2ccc(-c3cn[nH]c3)nc21` [Compound 1, N-(2-fluorobenzyl)-1-methyl-6-(1H-pyrazol-4-yl)-1H-pyrrolo[2,3-b]pyridine-2-carboxamide], for which the IC50 was determined as 31.4 nM in series [2]; 2.3 nM in series [3] (Table 2A); 2.7 nM in series [3] (setting [11]); 16.4 nM in series [4] (Table 2A); 30.3 nM in series [4] (setting [11]); 238 nM in series [6]. Also, the efflux ratio at 2 h, 1 µM in series [7] stood at 0.8. Further, the “mortality and adverse events” value in series [8] is recorded as “no animals died or had adverse events”. The “plasma level in 24 hours” value in [8] was “below the detection limit”. For the same compound, the AUC(0-inf) in series [9] (IV 3 mg/kg, male) was found to be 10200 ng·h/mL; in [9] (PO 10 mg/kg, male) it was 5750 ng·h/mL; in series [9] (PO 100 mg/kg, male), 46000 ng·h/mL; in series [10] (setting [12]), 4650 ng·h/mL; in series [10] (Sprague-Dawley, plasma, PO 10 mg/kg) it was 2660 ng·h/mL. For the same compound, the AUC(0-t) in series [9] (IV 3 mg/kg, male) worked out at 10100 ng·h/mL; in [9] (PO 10 mg/kg, female) it was 5670 ng·h/mL; in series [9] (PO 10 mg/kg, male) it was 5350 ng·h/mL; in series [9] (PO 100 mg/kg, male), 44100 ng·h/mL; in [10] (setting [12]), 4620 ng·h/mL; in [10] (setting [13]), 2610 ng·h/mL. The Cmax was found to be 12200 ng/mL in series [9] (IV 3 mg/kg, male); 1110 ng/mL in series [9] (PO 10 mg/kg, female); 1040 ng/mL in [9] (PO 10 mg/kg, male); 4070 ng/mL in [9] (PO 100 mg/kg, male); 5540 ng/mL in series [10] (setting [12]); 409 ng/mL in series [10] (setting [13]). Further, the half-life in series [9] (IV 3 mg/kg, male) was 0.987 h; in series [9] (PO 10 mg/kg, male) it was 2.72 h; in [9] (PO 100 mg/kg, male) it was 4.47 h; in series [10] (setting [12]), 5.33 h; in [10] (setting [13]) it was 3.67 h. Also, the Tmax was 1 h in [9] (PO 10 mg/kg, female); 1 h in [9] (PO 10 mg/kg, male); 8 h in series [9] (PO 100 mg/kg, male); 2.67 h in series [10] (setting [13]). In addition, the AUC0-t/D is 3380 (h*ng/mL)/(mg/kg) in series [9] (IV 3 mg/kg, male); 567 (h*ng/mL)/(mg/kg) in [9] (PO 10 mg/kg, female); 535 (h*ng/mL)/(mg/kg) in series [9] (PO 10 mg/kg, male); 441 (h*ng/mL)/(mg/kg) in series [9] (PO 100 mg/kg, male); 1541 (h*ng/mL)/(mg/kg) in series [10] (IV 3 mg/kg); 261 (h*ng/mL)/(mg/kg) in series [10] (PO 10 mg/kg). Further, the Tlast was determined as 8 h in [9] (IV 3 mg/kg, male); 24 h in [9] (PO 10 mg/kg, female); 12 h in series [9] (PO 10 mg/kg, male); 24 h in series [9] (PO 100 mg/kg, male); 24 h in series [10] (IV 3 mg/kg); 24 h in series [10] (PO 10 mg/kg). For the same compound, the “Ratio to 10 mg/kg Dose Level, AUC0-t” value in [9] (PO 100 mg/kg vs 10 mg/kg, male) is 8.24. For the same compound, in series [9] (PO 100 mg/kg vs 10 mg/kg, male), the “Ratio to 10 mg/kg Dose Level, AUC0-∞” value is recorded as 8.00. The “Ratio to 10 mg/kg Dose Level, Cmax” value in series [9] (PO 100 mg/kg vs 10 mg/kg, male) came to 3.91. The compound further came in with a kinetic solubility at 2 h in [5] of 0.64 µM (≈ 0.224 µg/mL). In addition, the efflux ratio at 2 h in series [1] stood at 1.46.

As usually defined, the efflux ratio is a quotient of directional permeabilities that is used to spot active efflux. One may read the IC50 as the concentration at which inhibition is half-maximal. A low value points to greater potency in that assay. In general, solubility (kinetic) refers to the concentration staying in solution when a stock, usually in DMSO, is diluted into the medium. Broadly, the AUC(0-inf) is the area under the concentration-time curve extrapolated to infinity. By AUC(0-t) is commonly meant exposure summed from dosing to a finite time, without extrapolation to infinity. Broadly, the Cmax is the maximum level reached in the sampled fluid or tissue. For orientation: half-life means the time needed for the level to fall by half in the phase considered. One may read the Tmax as the time at which the peak concentration occurs.
